The source of these data is patent publication US20100152128A1, “Antiviral Agents” (priority 2007, published 2010).

Read-outs that look alike come from different tables or passages of the source.

This assay deals with subgenomic HCV Replicon in HuH-7 cells. The experiment in a line: Assay for inhibition of HCV RNA replication (replicon, in situ ribonuclease protection SPA). The assay is classed as cell-based, Hepatitis C Virus. A general note: Replicon systems follow genome replication, usually without infectious particles.
[1] abbreviates: Hepatitis C virus, HuH-7 hepatoma cells containing a subgenomic HCV Replicon, inhibition of HCV RNA replication, read-out: EC50.
Where [2] appears, read: HuH-7 hepatoma cells containing a subgenomic HCV Replicon, inhibition of HCV RNA replication, read-out: EC50.

A word on the EC50: it is the concentration at which the effect is half-maximal. Take `C[C@H](NP(=O)(O)OC[C@H]1O[C@@H](n2ccc(N)nc2=O)[C@](C)(O)[C@@H]1O)C(=O)OC1CCCCCC1` [Example 4, 5′-O-[[[(1S)-2-(cycloheptyloxy)-1-methyl-2-oxoethyl]amino]hydroxyphosphinyl]-2′-C-methylcytidine]: the EC50 under setting [1] is 9.9 µM. The same measure, in the same setting: as for `C[C@H](NP(=O)(O)OC[C@H]1O[C@@H](n2ccc(N)nc2=O)[C@](C)(O)[C@@H]1O)C(=O)OC1CCCCCCC1` [Example 5, 5′-O-[[[(1S)-2-(cyclooctyloxy)-1-methyl-2-oxoethyl]amino]hydroxyphosphinyl]-2′-C-methylcytidine], the figure is 9.9 µM. In turn, `CCCC(CCC)c1nnc([C@H](C)NP(=O)(O)OC[C@H]2O[C@@H](n3ccc(N)nc3=O)[C@](C)(O)[C@@H]2O)o1` [Example 9, 5-O-[hydroxy[[1-[5-(1-propylbutyl)-1,3,4-oxadiazol-2-yl]ethyl]amino]phosphinyl]-2′-C-methylcytidine] yielded an EC50 (Hepatitis C virus, Huh-7) of 10.6 µM. As for `CCCC(CCC)c1noc([C@H](C)NP(=O)(O)OC[C@H]2O[C@@H](n3ccc(N)nc3=O)[C@](C)(O)[C@@H]2O)n1` [Example 8, [(3aR, 4aR, 6R, 6aR)-6-(4-amino-2-oxopyrimidin-1(2H)-yl)-3,4-dihydroxy-4-methyltetrahydrofuran-2-yl]methyl hydrogen{(1S)-1-[3-(1-propylbutyl)-1,2,4-oxadiazol-5-yl]ethyl}amidophosphate], the EC50 under setting [2] was 5.4 µM. Turning to `CCCC(CCC)COC(=O)C(C)NP(=O)(O)OC[C@H]1O[C@@H](n2ccc3c(N)ncnc32)[C@](C)(O)[C@@H]1O` (stereo partly shown) [Example 10, 5′-O-[hydroxyl[[1-methyl-2-oxo-2-[(propylpentyl)oxy]ethyl]amino]phosphinyl]-2′-C-methyl-7-deaza adenosine], the EC50 under setting [2] is 1.1 µM. For `CCCC(CCC)C(=O)OCCNP(=O)(O)OC[C@H]1O[C@@H](n2ccc3c(N)ncnc32)[C@](C)(O)[C@@H]1O` [Example 11, 5′-O-[hydroxyl[[2-[(1-oxo-2-propylpentyl)oxy]ethyl]amino]phosphinyl]-2′-C-methyl-7-deaza adenosine], under setting [1], the EC50 is 0.7 µM. As for `CCCC(CCC)COC(=O)[C@H](C)NP(=O)(O)OC[C@H]1O[C@@H](n2ccc(N)nc2=O)[C@](C)(O)[C@@H]1O` [Example 2, 5′-O-[hydroxy[[(1S)-1-methyl-2-oxo-2-[(2-propylpentyl)oxy]ethyl]amino]phosphinyl]-2′-C-methylcytidine], the EC50 under setting [1] is 6 µM.
